We go through 13 molecules from patent US9586914B2, “Modulators of C3a receptors” (THE UNIVERSITY OF QUEENSLAND, priority 2011, dated 2017).

Read-outs that look alike come from different tables or passages of the source.

One experiment addresses T1, C3a receptor (C3aR) (Homo sapiens, UniProt Q16581).
T1 construct: peripheral blood mononuclear cells were isolated from buffy coat (obtained from Australian Red Cross Blood Service, Kelvin Grove); endogenous in cells; host or cells: primary human monocyte-derived macrophages (HMDM) differentiated from CD14+ monocytes of donor buffy coat
T1 sequence (Q16581 1-482): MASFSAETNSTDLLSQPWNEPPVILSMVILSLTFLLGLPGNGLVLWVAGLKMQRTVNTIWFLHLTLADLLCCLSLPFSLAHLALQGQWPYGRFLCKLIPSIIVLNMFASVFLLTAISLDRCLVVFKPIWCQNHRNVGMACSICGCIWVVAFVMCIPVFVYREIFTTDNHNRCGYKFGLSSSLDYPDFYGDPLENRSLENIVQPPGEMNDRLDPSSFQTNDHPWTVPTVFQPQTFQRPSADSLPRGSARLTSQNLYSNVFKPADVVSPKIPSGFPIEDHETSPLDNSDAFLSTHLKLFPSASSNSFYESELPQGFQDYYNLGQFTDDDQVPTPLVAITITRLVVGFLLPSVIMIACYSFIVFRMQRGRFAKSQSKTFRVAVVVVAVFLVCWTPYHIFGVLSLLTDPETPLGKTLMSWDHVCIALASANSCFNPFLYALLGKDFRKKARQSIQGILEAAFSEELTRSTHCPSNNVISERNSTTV
In words: Competitive binding with [^125I]-C3a in HMDM. Particulars: for pIC50 ± SEM / IC50: HMDM. An outline of the steps: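 IC50 values are geometric means, with −log IC50 computed per experiment and given as arithmetic mean ± SE. Cells were CD14+ monocytes from buffy-coat PBMC, differentiated to macrophages and used on day 7. Unbound label was removed by GF/B filtration with 3 cold washes in 50 mM Tris-HCl pH 7.4.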

Experiment [1] concerns the target T2, C3aR (Homo sapiens, UniProt Q16581).
T2 construct: peripheral blood mononuclear cells were isolated from buffy coat (obtained from Australian Red Cross Blood Service, Kelvin Grove); endogenous in cells; host or cells: primary human monocyte-derived macrophages (HMDM) differentiated from CD14+ monocytes of donor buffy coat
T2 sequence (Q16581 1-482): T1 sequence (Q16581 1-482)
Briefly: Calcium mobilization assay in HMDM (agonist/antagonist activity). In kind it is cell-based. The procedure, abridged:
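Human monocyte-derived macrophages, 5×10^4 cells/well, loaded 1 h at 37 °C with 4 μM Fluo-3 in HBSS/HEPES/probenecid buffer, pH 7.4. Agonist mode: calcium release read 300 s; antagonist mode: 900 s compound preincubation then agonist, read 300 s (ex 485/em 520 nm); compared with hC3a.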

Experiment [2] concerns the target T2, C3aR. In words: Desensitization experiments (Ca^2+ efflux after hC3a desensitization). It counts as cell-based. To be noted: hC3a 3 μM first; second addition of 1 μM compound; HMDM. How it is done: Desensitization experiments were used to measure the selectivity of various ligands for C3aR, since this can help to clarify whether the non-peptidic ligands bind selectively to C3aR over other GPCRs that signal through intracellular calcium release.
The hC3a (3 μM) was administered to human monocyte derived macrophage cells, which produces an efflux of intracellular Ca^2+ that dissipates after 4-5 mins (FIGS. 4A and 4B). A second addition of 3 μM hC3a after 5 mins has no effect, due to desensitization of the receptor through either receptor (C3a receptor) phosphorylation or receptor internalization from the cell surface.

The mark [3] stands for this setting: Table 6, competitive binding with [^125I]-C3a.
The mark [4] stands for this setting: Table 6, competitive binding with [^125I]-C3a, read-out: IC50 (converted).
Where [5] appears, read: Table 9, Ca^2+ mobilization, HMDM.
Setting [6] is: Table 9, Ca^2+ mobilization, HMDM, read-out: EC50.
The mark [7] stands for this setting: Table 6, competitive binding with [^125I]-C3a, read-out: pIC50 ± SEM (converted).
The mark [8] stands for this setting: Table 11, [^125I]-C3a, read-out: Receptor Binding Affinity IC50.
[9] abbreviates: Table 11, [^125I]-C3a, read-out: Receptor Binding Affinity pIC50 ± SE (converted).
The mark [10] stands for this setting: Table 9, Ca^2+ mobilization, HMDM, read-out: pEC50 ± SEM (converted).
[11] abbreviates: Table 11, Ca^2+ mobilisation, HMDM, read-out: Apparent Antagonist Activity EC50.
Where [12] appears, read: quoted in text of Example 98, read-out: EC50.

In the case of `CC[C@H](C)[C@H](NC(=O)c1ccccc1Oc1ccccc1)c1nc(C(=O)N[C@@H](CCCNC(=N)N)C(=O)O)co1` [Compound 18, 2-phenoxy benzoic acid-isoleucine-oxazole-arginine-OH], the “pIC50 ± SEM” value at C3a receptor (C3aR) (setting [3]) is 7.26 ± 0.09. At C3a receptor (C3aR) (setting [4]), the IC50 is 55 nM. Also, at C3aR [1] (setting [5]), the “pEC50 ± SEM” value was found to be 7.26 ± 0.08. Moreover, the EC50 on C3aR [1] (setting [6]) is 54 nM. Further, on C3aR [2], the “Ca^2+ efflux on addition after first desensitization with hC3a (selectivity for C3aR over other GPCRs)” value is recorded as “caused a second efflux of intracellular Ca^2+”.
As to `CC(C)C[C@H](NC(=O)OC(C)(C)C)c1nc(C(=O)NC(CCCNC(=N)N)C(=O)O)co1` (some centres unmarked) [Compound 1, Boc-leucine oxazole-arginine-OH], the IC50 on C3a receptor (C3aR) (setting [4]) was 20 nM; at C3a receptor (C3aR) (setting [7]), 19.5 nM; at C3a receptor (C3aR) (setting [8]) it was 20 nM; at C3a receptor (C3aR) (setting [9]), 19.5 nM. The values for the EC50 on C3aR [1] (setting [10]), on C3aR [1] (setting [11]) and on C3aR [1] (setting [12]) were 19.1 nM, 19 nM and 19 nM, respectively. Also, the “Ca^2+ efflux on addition after first desensitization with hC3a (selectivity for C3aR over other GPCRs)” value on C3aR [2] is given as “did not produce calcium efflux”.
`CC[C@H](C)[C@H](NC(=O)OC(C)(C)C)c1nc(C(=O)N[C@@H](CCCNC(=N)N)C(=O)O)c(C)o1` [Compound 25, Boc-isoleucine-5-methyl-oxazole-arginine-OH]: the IC50 at C3a receptor (C3aR) (setting [7]) was 13.8 nM; at C3a receptor (C3aR) (setting [8]) it was 15 nM; at C3a receptor (C3aR) (setting [9]), 13.8 nM. In addition, the EC50 is 45 nM at C3aR [1] (setting [6]); 45 nM on C3aR [1] (setting [11]); 39.8 nM on C3aR [1] (Table 11, Ca^2+ mobilisation, HMDM, read-out: Apparent Antagonist Activity pEC50 ± SE (converted)). Further, the “Ca^2+ efflux on addition after first desensitization with hC3a (selectivity for C3aR over other GPCRs)” value at C3aR [2] is given as “caused a second efflux of intracellular Ca^2+”.
For `CC[C@H](C)[C@H](NC(=O)CCC(=O)c1ccc(-c2ccccc2)cc1)c1nc(C(=O)N[C@@H](CCCNC(=N)N)C(=O)O)co1` [Compound 16, 4-(biphenyl-4-yl)-4-oxobutanoic acid-Isoleucine-Oxazole-Arginine-OH], at C3a receptor (C3aR) (setting [3]), the “pIC50 ± SEM” value came to 6.81 ± 0.07. For the same molecule, on C3a receptor (C3aR) (setting [4]), the IC50 was 155 nM. Further, on C3aR [1] (setting [5]), the “pEC50 ± SEM” value is 8.12 ± 0.21. The EC50 on C3aR [1] (setting [12]) worked out at 8 nM. Moreover, the “Ca^2+ efflux on addition after first desensitization with hC3a (selectivity for C3aR over other GPCRs)” value on C3aR [2] is on record as “did not produce calcium efflux”.
Taken in the same sequence, the figures for `CC[C@H](C)[C@H](NC(=O)OC(C)(C)C)c1nc(C(=O)N[C@@H](CCCNC(=N)N)C(=O)O)co1` [Compound 2] were 7.53 ± 0.10, 30 nM, 7.57 ± 0.11, 27 nM and “did not produce calcium efflux”.
For the molecule `CC[C@H](C)[C@H](NC(=O)c1nccc2ccccc12)c1nc(C(=O)N[C@@H](CCCNC(=N)N)C(=O)O)co1` [Compound 10, Isoquinoline-1-Isoleucine-Oxazole-Arginine-OH], the IC50 on C3a receptor (C3aR) (setting [4]) is 123 nM. Also, the EC50 at C3aR [1] (setting [10]) was 40.7 nM. Further, the “Ca^2+ efflux on addition after first desensitization with hC3a (selectivity for C3aR over other GPCRs)” value at C3aR [2] is reported as “did not produce calcium efflux”.
On to `Cc1oc([C@H](CC(C)C)NC(=O)c2ccccn2)nc1C(=O)N[C@@H](CCCNC(=N)N)C(=O)O` [Compound 29, Picolinic acid-Leucine-5-Methyl-Oxazole-Arginine], for which the remaining activity at 20 µM at C3a receptor (C3aR) (1 h, read-out: %[^125I]-C3a binding) stood at 31%. At C3aR [1] (read-out: % agonist), the Emax at 10 µM came out at 77%.
As for `CC(C)C[C@H](NC(=O)OC(C)(C)C)c1nc(C(=O)N[C@@H](CCCNC(=N)N)C(=O)O)c(-c2ccccc2)o1` [Compound 50, Boc-Leucine-5-Phenyl-Oxazole-Arginine], the IC50 on C3a receptor (C3aR) (setting [7]) is 37.2 nM; on C3a receptor (C3aR) (setting [9]), 37.2 nM; at C3aR [1] (Table 11, Ca^2+ mobilisation, HMDM, read-out: Apparent Antagonist Activity IC50) it was 16.5 nM. Also, the “Apparent Antagonist Activity pEC50 ± SE (symbol)” value on C3aR [1] (Table 11) is given as “* (The compounds show no agonist activity in calcium mobilisation assays up to 100 μM.)”.
For the molecule `CC[C@H](C)[C@H](NC(=O)Cc1c[nH]c2ccccc12)c1nc(C(=O)N[C@@H](CCCNC(=N)N)C(=O)O)co1` [Compound 9, 2-(1H-indol-3-yl)acetic acid-Isoleucine-Oxazole-Arginine-OH], the “pIC50 ± SEM” value at C3a receptor (C3aR) (setting [3]) was 6.82 ± 0.10. Moreover, the IC50 on C3a receptor (C3aR) (setting [4]) was 152 nM. The “pEC50 ± SEM” value at C3aR [1] (setting [5]) is given as 7.14 ± 0.19. The EC50 at C3aR [1] (setting [6]) worked out at 73 nM.
In the case of `CC[C@H](C)[C@H](NC(=O)c1cncc(Br)c1)c1nc(C(=O)N[C@@H](CCCNC(=N)N)C(=O)O)co1` [Compound 20], the “pIC50 ± SEM” value on C3a receptor (C3aR) (setting [3]) was 8.30 ± 0.10. Also, the IC50 at C3a receptor (C3aR) (setting [4]) is 5 nM. Also, the “pEC50 ± SEM” value at C3aR [1] (setting [5]) is given as 7.76 ± 0.36. Besides, on C3aR [1] (setting [6]), the EC50 is 17 nM.
With `CC(C)C[C@H](NC(=O)OC(C)(C)C)c1nc(C(=O)N[C@@H](CCCNC(=N)N)C(=O)NS(C)(=O)=O)co1` [Compound 93, tert-butyl ((S)-1-(4-(((S)-5-guanidino-1-(methylsulfonamido)-1-oxopentan-2-yl)carbamoyl)oxazol-2-yl)-3-methylbutyl)carbamate], the IC50 on C3a receptor (C3aR) (setting [4]) is 30 nM; at C3aR [1] (Table 13, calcium release from HMDM, read-out: Antagonist Activity IC50) it was 2000 nM.
For `CC(C)C[C@H](NC(=O)CC(c1ccccc1)c1ccccc1)c1nc(C(=O)N[C@@H](CCCNC(=N)N)C(=O)O)co1` [Compound 19, 3,3-diphenylpropanoic acid-Leucine-Oxazole-Arginine-OH], on C3a receptor (C3aR) (setting [4]), the IC50 is 754 nM. For the same molecule, at C3aR [1] (setting [6]), the EC50 was 744 nM.
Take `N=C(N)NCCC[C@H](NC(=O)c1sc(C(c2ccccc2)c2ccccc2)nc1-c1ccccc1)C(=O)O` [Compound 65, 2-Diphenylmethyl-4-phenyl thiazole-5-carboxyl-Arg-OH]: the IC50 on C3a receptor (C3aR) (Table 8, read-out: Receptor Binding Affinity ^125I IC50) turned out to be 3370 nM; on C3aR [1] (Table 10, HMDM, read-out: Antagonist Activity Ca^2+ IC50) it was 67000 nM.
